In publication PMC9238401, “Peptide Conjugates Derived from flg15, Pep13, and PIP1 That Are Active against Plant-Pathogenic Bacteria and Trigger Plant Defense Responses” (Applied and Environmental Microbiology, 2022):
Marks after values point to notes of the source that are not given here. Non-standard residues stand in square brackets, D forms with d. Residues, ends and D or L forms follow the SMILES beside them. *: point of attachment. Butyryl = CCCC(=O)*

Key:
tobacco leaves = test: Effect of peptide infiltration on tobacco leaves (phytotoxicity); type: in vivo
How it was run: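 Phytotoxicity was scored as necrotic lesion diameter 48 h post-infiltration. Each peptide was infiltrated at 50, 150 or 250 μM into fully expanded tobacco leaf mesophyll, on ≥3 leaves from different plants, alongside water and same-molar melittin controls.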

[1] = test system: tomato plants cv. Rio Grande, defense-related genes; test: Induction of defense gene expression in tomato plants (RT-qPCR); type: in vivo; conditions: peptide sprayed at 125 μM, leaves 24 h after application, ΔΔCT vs actin and nontreated control; for PR1 expression, fold induction: above 2 = overexpression
Protocol: The capacity to induce the expression of genes related to defense response in tomato plants was evaluated for the peptide conjugates flg15-BP387, flg15-BP475, and PIP1-BP475 and the monomers flg15 and PIP1 (Table 2).
Seeds of tomato cv. Rio Grande plants were sown in hydroponic seed plugs (rockwool) and germinated and grown in an environmentally controlled greenhouse at 25 ± 2°C (day) and 18 ± 2°C (night), with a minimum relative humidity of 60% and with a photoperiod of 16 h light and 8 h dark. Then, 2-week-old seedlings (two cotyledons) were transplanted into rockwool plugs (7.5 × 7.5 × 6.5 cm; Gordan Iberica, Spain). Tomato plants were maintained until use under the same environmental conditions.
The 2-week-old tomato plants cv. Rio Grande were sprayed with aqueous solutions of the peptides flg15-BP387, flg15-BP475, PIP1-BP475, flg15, and PIP1 at 125 μM until the runoff point. […] Water-sprayed plants were used as nontreated controls (NTC). The experimental design consisted of three replicates of three plants per treatment. Leaf samples were collected 24 h after product application and processed to extract RNA for reverse transcriptase quantitative PCR (RT-qPCR) assays. Plant material was roughly ground in liquid nitrogen and was transferred into tubes with two glass beads. Afterward, the frozen samples were finely ground using the TissueLyser II system (Qiagen, Hilden, Germany) at a frequency of 30 Hz for 1 min. Total RNA was extracted from leaves (100 mg) using PureLink plant RNA reagent (Invitrogen, Life Technologies) according to the manufacturer’s manual. The RNA was solubilized in RNase-free water (Ambion, Thermo Fisher Scientific, USA) and was routinely subjected to DNase treatment (Ambion Turbo DNA-free; Invitrogen Life Technologies, Carlsbad, CA, USA) to remove any contaminant DNA. In each step, the RNA was quantified using a NanoDrop ND-1000 spectrophotometer (Nanodrop Technologies, Wilmington, DE, USA). First-strand cDNA was generated from leaf RNA using reverse transcriptase (high-capacity cDNA reverse transcription kit; Applied Biosystems, Foster City, CA, USA) according to the manufacturer’s manual.
To test gene defense induction in the treated tomato plants, a quantitative PCR (qPCR) assay was performed. qPCR was carried out in a fluorometric thermal cycler (7500 Fast real-time PCR system; Applied Biosystems, USA) by using a Mix SYBR green PCR master mix (Applied Biosystems, Foster City, CA, USA) as previously described ([49]). Melting curve analysis was performed after each amplification to verify amplification specificity. A constitutive gene (actin) was used as a reference control ([52]), and the following genes implicated in plant defense response were analyzed using the previously described primers: pathogenesis-related protein-1 (PR1) and chitinase A (PR3) ([81]), subtilisin-like protease P69G (PR7), peroxidase 1 (PR9), WRKY3 transcription factor (WRKY3), hairpin-induced protein-like (Harp), blue-copper-binding protein gene (BCB) and ethylene responsive transcription factor (ERF) ([71]), and basic β-1,3-endoglucanase (GluB) ([52]). The primer concentration was 100 nM for all the genes except for the actin gene, for which the concentration was 300 nM. A calibration curve was prepared by cloning the corresponding target sequence in the pSpark cloning vector (Canvax, Córdoba, Spain), which was used to transform Escherichia coli DH5α. Plasmids were purified (Qiagen Iberia, S.L., Madrid, Spain), plasmid copies were quantified, and decimal dilutions were prepared.

[2] = 100 μL infiltrated into mesophyll, lesion diameter 48 h after infiltration, at least three leaves, ± confidence interval (α = 0.05)

| Molecule | Size of the lesions in infiltrated tobacco leaves at 50 μM (tobacco leaves; [2]) [cm] | Size of the lesions in infiltrated tobacco leaves at 150 μM (tobacco leaves; [2]) [cm] | Size of the lesions in infiltrated tobacco leaves at 250 μM (tobacco leaves; [2]) [cm] | BCB expression, fold induction [1] | ERF expression, fold induction [1] | GluB expression, fold induction [1] | Harp expression, fold induction [1] | PR3 expression, fold induction [1] | PR7 expression, fold induction [1] | PR9 expression, fold induction [1] | WRKY3 expression, fold induction [1] [fold] | PR1 expression, fold induction [1] | Size of the lesions in infiltrated tobacco leaves at 50 μM (tobacco leaves; in vivo) [cm] | Size of the lesions in infiltrated tobacco leaves at 150 μM (tobacco leaves; in vivo) [cm] | Size of the lesions in infiltrated tobacco leaves at 250 μM (tobacco leaves; in vivo) [cm] |
| --- | --- | --- | --- | --- | --- | --- | --- | --- | --- | --- | --- | --- | --- | --- | --- |
| CCCC(=O)NCCCC[C@H](NC(=O)[C@H](CCCCN)NC(=O)[C@H](CC(C)C)NC(=O)[C@@H](NC(=O)[C@H](CCCCN)NC(=O)[C@H](CCCCN)NC(=O)[C@@H](Cc1ccccc1)NC(=O)[C@H](CC(C)C)NC(=O)[C@H](CCCCN)NC(=O)[C@H](CCCCN)NC(=O)[C@H](Cc1c[nH]cn1)NC(=O)[C@@H](NC(=O)[C@H](Cc1c[nH]cn1)NC(=O)[C@@H](NC(=O)CNC(=O)[C@H](Cc1ccc(O)cc1)NC(C)=O)[C@@H](C)CC)[C@@H](C)O)[C@@H](C)CC)C(=O)N[C@@H](CC(C)C)C(N)=O [PIP1-BP475] (Ac-YGIHTHKKL[dF]KKILKK(Butyryl)L-NH2) | 0.47 ± 0.13 | 1.03 ± 0.06 | 1.17 ± 0.06 | 2.07 ± 0.11^d fold | 0.81 ± 0.30 fold | 0.80 ± 0.07 fold | 2.25 ± 0.12^d fold | 7.36 ± 1.05^d fold | 1.29 ± 0.19^d fold | 1.99 ± 0.11^d fold | 1.46 ± 0.11 | 0.64 ± 0.36 fold |  |  |  |
| CCCC(=O)NCCCC[C@H](NC(=O)[C@H](CCCCN)NC(=O)[C@H](CC(C)C)NC(=O)[C@@H](NC(=O)[C@H](CCCCN)NC(=O)[C@H](CCCCN)NC(=O)[C@@H](Cc1ccccc1)NC(=O)[C@H](CC(C)C)NC(=O)[C@H](CCCCN)NC(=O)[C@H](CCCCN)NC(=O)[C@H](C)NC(=O)[C@@H](NC(=O)[C@H](CCC(N)=O)NC(=O)[C@H](CC(C)C)NC(=O)CNC(=O)[C@H](C)NC(=O)[C@H](C)NC(=O)[C@H](CC(=O)O)NC(=O)[C@H](CC(=O)O)NC(=O)[C@H](CCCCN)NC(=O)[C@H](C)NC(=O)[C@H](CO)NC(=O)[C@H](CC(N)=O)NC(=O)[C@@H](NC(=O)[C@H](CCCNC(=N)N)NC(C)=O)[C@@H](C)CC)[C@@H](C)CC)[C@@H](C)CC)C(=O)N[C@@H](CC(C)C)C(N)=O [flg15-BP475] (Ac-RINSAKDDAAGLQIAKKL[dF]KKILKK(Butyryl)L-NH2) | 0.60 ± 0 | 1.20 ± 0 | 1.37 ± 0.06 | 5.84 ± 1.38^d fold | 0.67 ± 0.15^d fold | 4.31 ± 0.82^d fold | 3.68 ± 0.91^d fold | 10.96 ± 1.85^d fold | 5.82 ± 0.78^d fold | 3.83 ± 0.25^d fold | 1.16 ± 0.26 | 2.02 ± 0.07^d fold |  |  |  |
| RINSAKDDAAGLQIA-OH [flg15, plant defense elicitor peptide, 15 amino acids of the N-terminal conserved domain of bacterial flagellin; monomer] | 0 ± 0 | 0 ± 0 | 0 ± 0 | 8.14 ± 2.48^d fold | 1.09 ± 0.44 fold | 6.05 ± 2.40^d fold | 4.28 ± 1.49^d fold | 17.68 ± 4.18^d fold | 9.26 ± 2.06^d fold | 6.24 ± 2.25^d fold | 1.41 ± 0.84 | 8.32 ± 3.35^d fold |  |  |  |
| YGIHTH-NH2 [PIP1, plant defense elicitor peptide identified through combinatorial chemistry; monomer] |  |  |  | 1.99 ± 0.40^d fold | 0.58 ± 0.11^d fold | 0.96 ± 0.32 fold | 1.97 ± 0.45^d fold | 3.59 ± 1.35^d fold | 1.13 ± 0.26 fold | 1.23 ± 0.18 fold | 0.94 ± 0.35 | 1.00 ± 0.39 fold | 0 ± 0 | 0 ± 0 | 0 ± 0 |
